Patent US20240101972A1, “METHODS OF […]-[…] PRODUCTION” (priority 2021, published 2024)
Read-outs that look alike come from different tables or passages of the source.

Key:
[1] = test system: ecDHFR degron tagged Rep proteins
Procedure: Expi293 cells were seeded 1.4E6 viable cells/mL in Expi293 media the day before transfection. Transfection was performed when the viable cells were between 2E6-3E6 cells/mL. PEI pro transfection reagent (Polyplus), OptiMEM (Gibco) were used. PEI:DNA ratio was 2 and 0.6 μg DNA per million cells was used. Triple transfections were performed with RHM4-1 Rep Cap, Helper and Gaussia luciferase plasmids. Split Rep and Cap plasmids were used in a ratio of 1:4 (Rep:Cap). In some cases split Rep Cap plasmids and TIR1 or CMV-Tet were used in a ratio of 1:3:1 (Rep:Cap:TIR1 or CMV-Tet). 1.5 mM SAHA was added after the addition of DNA-PEI complexes. In some cases next day Shield1 or TMP or Auxin and/or Doxycycline was added. For Doxycycline treated samples another treatment of Dox was performed 24 hr later than first treatment. Cells harvested at 4,8,24 hr post-treatment and 44 hr or 68 hr or 72 hr post-transfection; centrifuged and washed with cold PBS. These cell pellets were kept at −80 freezer.
Cell pellets were lysed with RIPA buffer (Pierce) including protease and phosphatase inhibitors and EDTA on ice for 30 minutes. Lysates were centrifuged max speed for 15 minutes and supernatant was transferred to a new Eppendorf tube and used for Western. Protein concentrations were measured with BCA kit (Pierce). 30 lag protein per lane loaded for SDS-PAGE gels. These gels were transferred to either PVDF or Nitrocellulose membrane. Membranes were blocked with blocking buffer (Li-Cor) for 30 minutes at room temperature. Anti-AAV Rep clone 303.9 (ARP, cat #03-61069) purified mouse monoclonal antibody was diluted 500 times in either blocking buffer (Li-Cor) or antibody diluent (Li-Cor). Membranes were incubated overnight in cold room either rocking or non-rocking. Next day membranes were washed 3 times 10 minutes each with 1×TBST buffer (Invitrogen). Goat anti-mouse Alexa Flour 680 secondary antibody was diluted 1000 times in either blocking buffer (Li-Cor) or antibody diluent (Li-Cor). Membranes were incubated at room temperature rocking for 45 minutes. […]

[2] = test system: ecDHFR degron tagged Rep proteins; remark: listed apart in the source
Procedure: Expi293 cells were seeded 1.4E6 viable cells/mL in Expi293 media the day before transfection. Transfection was performed when the viable cells were between 2E6-3E6 cells/mL. PEI pro transfection reagent (Polyplus), OptiMEM (Gibco) were used. PEI:DNA ratio was 2 and 0.6 μg DNA per million cells was used. Triple transfections were performed with RHM4-1 Rep Cap, Helper and Gaussia luciferase plasmids. Split Rep and Cap plasmids were used in a ratio of 1:4 (Rep:Cap). In some cases split Rep Cap plasmids and TIR1 or CMV-Tet were used in a ratio of 1:3:1 (Rep:Cap:TIR1 or CMV-Tet). 1.5 mM SAHA was added after the addition of DNA-PEI complexes. In some cases next day Shield1 or TMP or Auxin and/or Doxycycline was added. For Doxycycline treated samples another treatment of Dox was performed 24 hr later than first treatment. Cells harvested at 4,8,24 hr post-treatment and 44 hr or 68 hr or 72 hr post-transfection; centrifuged and washed with cold PBS. These cell pellets were kept at −80 freezer. 1 mL of cells harvested 44 hr or 68 hr or 72 hr post-transfection for qPCR.
Frozen harvested cells were thawed and sonicated. 300 μL sonicated cells were treated with Benzonase for 1 hour at 37° C. incubator on a rotator/shaker. Then DNaseI treatment was performed for 15 minutes. Reaction was stopped with stop reagent (0.2% SDS/5 mM EDTA/0.2M NaCl), heated at 95° C. for 10 minutes and centrifuged. […]

[3] = test system: FKBP degron tagged Rep proteins; experiment: Western blot of FKBP degron tagged Rep proteins; format: cell-based, human
Procedure: (§1) PEI pro transfection reagent (Polyplus), OptiMEM (Gibco) were used. […] These cell pellets were kept at −80 freezer.
(§2) Protein concentrations were measured with BCA kit (Pierce). […] Membranes were scanned with Odyssey (Li-Cor).
(§3) As depicted in FIGS. 12A-12D “RHM4-1” and “RHM4-1v2” are the plasmids that express both Rep proteins with no degrons and RHM4-1 Cap. In contrast, “p40Cap plasmid” only expresses RHM4-1 Capsid, while “pAAV2 Rep plasmid” expresses Rep proteins from AAV2. The ITR plasmid used in these studies has Gaussia Luciferase as transgene.

[4] = test system: Rep with C-terminal FKBP degron; experiment: rAAV production from Rep-degron constructs, read out by Huh7 transduction and luciferase; format: cell-based, human
Description: Various constructs were designed for the development of mechanism for controllable Rep accumulation and higher rAAV production. Rep transgene was tagged at N-terminus or C-terminus with a destabilization domain (degron) to confer instability and target the translated Rep protein product to proteasome for degradation. The Rep protein degradation can be reversed by addition of the Shield1 ligand. The degron was modified from a human gene encoding FK506-binding protein 12 (“FKBP12”). It was previously shown that F36V modifications of the protein improves its specificity to Shield1 over FK506 (Clackson et al, PNAS 1998). […] The amino acid sequence of the degron that was used in the present example, referred to herein as “FKBP”, having a F36V and an L107P mutation, was:
Production of rAAV: Recombinant AAV were produced by transfection of human embryonic kidney (HEK293) cells grown in 6-well plates. The cells at 70-90% confluency were transfected with 3 μg of total DNA using jetOPTIMUS® DNA (PolyPlus)transfection reagent. The positive control rAAV produced with LK03 Rep/Cap plasmid were produced via triple transfection method. The plasmids were added in 1:1:1 ratio (1 helper: 1 ITR plasmid: 1 rep/cap plasmids). […]
Transduction of cells: Huh7 cells were transduced with equivalent volume of cell lysate or the cell media containing the AAV vectors. […] Transduction efficiency was assessed in biological duplicates or triplicates. Culture media was replaced the following day, and samples were analyzed for transgene expression 48-72 hours after transduction. For detection of Luciferase expression, Huh7 cells were lysed in passive lysis buffer (Promega) and each biological sample was divided and plated to four wells of 96-well luminescence assay plate. Renilla Luciferase levels were determined using the Renilla Luciferase Assay Kit (Promega) and analyzed in a microplate luminometer (Spectramax) fitted with injectors.
Shield1 was added to selected wells (FIG. 2). […] The Huh7 cells were then lysed and luciferase activity was measured for the detection of transgene activity.

[5] = test system: Rep with C-terminal degron under the control of TRE3G promoter; experiment: AAV titer (qPCR) of Rep with C-terminal degron under TRE3G promoter control; format: cell-based
Procedure: as §1
(§4) Frozen harvested cells were thawed and sonicated. […] Then DNaseI treatment was performed for 15 minutes.
(§5) In this study a Tet response element containing promoter (TRE3G) is cloned in front of the Rep gene as shown at FIG. 18A. This promoter can be activated in the presence of Tet proteins and doxycycline induction. Rep with C-terminal Degron under Tet Response Element promoter control is shown to be functional for AAV production regulation. Large Rep is under the control of Tet promoter and small Rep expression is provided by p19 promoter (Samples 1-5). […] Shield1 can upregulate small Rep expression (Sample 1 vs Sample 2) and large Rep expression (Sample 3 vs Sample 4). A separate plasmid is used for supplying Tet-On 3G transactivator protein where transactivator protein expression is under the control of ubiquitous CMV promoter (Samples 1-4). The amino acid sequence of the transactivator protein is: […]

[6] = target: T1, Rep with C-terminal degron under the control of TRE3G promoter (Homo sapiens, UniProt P62942, F37V); experiment: Western blot of Rep with C-terminal degron under TRE3G promoter control; format: cell-based
T1 construct: AAV Rep protein (fusion partner); expressed in transfected cells; host or cells: Expi293
Procedure: as §1, §2, §5

[7] = test system: FKBP degron tagged Rep proteins; experiment: AAV titer (qPCR) with FKBP degron tagged Rep; format: cell-based, human
Procedure: as §1, §4, §3

[8] = test system: C-terminal Auxin Inducible Degron containing Rep; experiment: AAV titer (qPCR) with Auxin Inducible Degron tagged Rep; format: cell-based; details: auxin and TIR1 all present (Sample 4), FIG. 14B
Procedure: as §1, §4

[9] = Rep constructs with C-terminal tagged degron, FIG. 15

T1 sequence (P62942 other isoform, or with tags, fused parts or gaps F37V): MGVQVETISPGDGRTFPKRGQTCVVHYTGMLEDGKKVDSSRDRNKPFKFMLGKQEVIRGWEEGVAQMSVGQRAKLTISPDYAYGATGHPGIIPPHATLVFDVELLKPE

In the case of `COc1cc(Cc2cnc(N)nc2N)cc(OC)c1OC` [TMP, Trimethoprim], the “Small and large Rep expression” value ([1]; C-ecDegron Rep, 5 μM TMP, FIG. 13B) is reported as “more”, the “Small and large Rep expression” value ([1]; C-terminal tagged ecDHFR degron, Samples 7 and 8, FIG. 14A) is reported as “more” and the “large Rep expression” value ([1]; N-ecDegron Rep, 5 μM TMP, 24 hour time point, FIG. 13A) is reported as “higher”. The AAV titer ([2]; C-terminal ecDHFR degron constructs, FIG. 13C) was “increases” and the AAV production ([2]; ecDHFR degron tagged Reps, Sample 8 vs Sample 7 (undetectable without TMP), FIG. 14B) was “can produce AAV”.
`CC[C@H](C(=O)N1CCCC[C@H]1C(=O)O[C@H](CCc1ccc(OC)c(OC)c1)c1cccc(OCCN2CCOCC2)c1)c1cc(OC)c(OC)c(OC)c1` [Shield1] was tested, and the “Small and large Rep expression” value ([3]; C-degron Rep, 4, 8, 24 hour after Shield1 vs untreated, FIG. 12B) was “higher”, the “large Rep expression” value ([3]; N-degron Rep, 4, 8, 24 hours after Shield1 vs untreated, FIG. 12A) was “increases” and the rAAV production ([4]; Rep with C-terminally linked degron in the presence of both Cap and Shield1, FIG. 6) was “significantly increased”. For the same compound, the “rAAV production and transduction of the target cells” value ([4]; Shield1 addition, Rep-only plasmid C-terminal degron, HEK293, FIG. 4) was “rescued”, the transduction efficiency ([4]; of the wt Rep/Cap plasmid, Rep-only plasmid C-terminal degron with Shield1, FIG. 4) was 15-20% and the AAV titer ([5]; codon-modified Rep and small Rep under TRE3G and degron control, treated with Shield1 and Dox together, FIG. 20B) was “higher”. The “small Rep expression” value ([6]; Sample 1 vs Sample 2, FIG. 16A) was “upregulate”, the “large Rep expression” value ([6]; Sample 3 vs Sample 4 (with doxycycline), FIG. 16A) was “upregulate” and the “Large and small Rep expression” value ([6]; Samples 2, 4, 6, 8 vs 1, 3, 5, 7, FIG. 17A) was “increased”. The “large Rep expression” value ([6]; Shield1 added on top of doxycycline, Samples 4 and 8, FIG. 18B) was “increased further”, the AAV titer ([7]; N- and C-terminal degron constructs vs untreated controls, FIG. 12C) was “increases AAV titer” and the “AAV production at different doses” value [7, 9] was “more effective at 500 nM concentration”.
In the case of `O=C(O)Cc1c[nH]c2ccccc12` [auxin], the AAV production [8] is reported as “undetectable”.
For `C[C@H]1c2cccc(O)c2C(=O)C2=C(O)[C@]3(O)C(=O)C(C(N)=O)=C(O)[C@@H](N(C)C)[C@@H]3[C@@H](O)[C@@H]21` [Doxycycline, doxycycline], the “increase of AAV production from the basal levels” value ([5]; Doxycycline induction, FIG. 16B) was roughly 29 times.
For `CC[C@H](C(=O)N1CCCC[C@H]1C(=O)O[C@H](CCc1ccc(OC)c(OC)c1)c1ccccc1OCC(=O)NCCCCCCOc1cccc2c1C(=O)N(C1CCC(=O)NC1=O)C2=O)c1cc(OC)c(OC)c(OC)c1` (some centres unmarked) [dTag13], the “basal level of the AAV production” value [7, 9] was “did not decrease”.
